In US8227422B2, “Peptides and compounds that bind to a receptor” (Glaxosmithkline LLC, priority 1996, dated 2012):
pIC50: −log10 of the molar value. Read-outs that look alike come from different tables or passages of the source. Where a SMILES comes first, the peptide text is derived from it.

Legend:
TPO-R = target: T1, TPO-R (Homo sapiens, UniProt P40238); experiment: Competition binding assay (equilibrium binding ELISA, MBP-TPO156 tracer) on immobilized TPO-R; conditions: read-out: IC50
T1 construct: made in house
T1 sequence (P40238 26-491 limits assumed): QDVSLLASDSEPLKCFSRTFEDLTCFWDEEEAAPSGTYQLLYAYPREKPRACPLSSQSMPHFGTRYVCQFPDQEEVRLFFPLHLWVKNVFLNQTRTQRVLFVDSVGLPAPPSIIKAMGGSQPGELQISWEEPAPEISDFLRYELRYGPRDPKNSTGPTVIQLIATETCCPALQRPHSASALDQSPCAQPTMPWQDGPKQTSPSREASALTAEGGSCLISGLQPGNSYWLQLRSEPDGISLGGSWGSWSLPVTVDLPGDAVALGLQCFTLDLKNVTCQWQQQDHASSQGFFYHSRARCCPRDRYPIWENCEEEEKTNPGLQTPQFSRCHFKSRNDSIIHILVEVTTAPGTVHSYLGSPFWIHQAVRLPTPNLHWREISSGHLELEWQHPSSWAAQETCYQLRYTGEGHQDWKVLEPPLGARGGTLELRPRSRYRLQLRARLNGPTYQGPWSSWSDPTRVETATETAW
Procedure: A variety of methods can be used to evaluate IC50 values. For example, an equilibrium binding ELISA assay, using either MBP-TPO or lacI-peptide tracer, was used to determine whether the peptides inhibit the binding of TPO to the extracellular domain of the TPO receptor. Typically, the IC50 value were determined using the free peptide. The IC50 value can be determined using the free peptide, which optionally can be C-terminally amidated, or can be prepared as an ester or other carboxy amide.
Binding affinities of chemically synthesized peptides for TPO-R were measured in a competition binding assay. The wells of a microtiter plate were coated with 1 mg streptavidin, blocked with PBS/1% BSA, followed by 50 ng of biotinylated anti-receptor immobilizing antibody (Ab179). The wells were then treated with a 1:10 dilution of soluble TPO-R harvest. Various concentrations of peptide or peptide mimetic were mixed with a constant amount of a truncated form of TPO consisting of residues 1-156 fused to the C-terminus of maltose binding protein (MBP-TPO156). The peptide MBP-TPO156 mixtures were added to the TPO-R coated wells, incubated for 2 hours at 4° C. and then washed with PBS. The amount of MBP-TPO156 that was bound at equilibrium was measured by adding a rabbit anti-sera directed against MBP, followed by alkaline phosphatase conjugated goat anti-rabbit IgG. The amount of alkaline phosphatase in each well was then determined using standard methods.
The assay is conducted over a range of peptide concentrations and the results are graphed such that the y axis represents the amount of bound MBP-TPO156 and the x axis represents the concentration of peptide or peptide mimetic.

TPO receptor = target: T2, TPO receptor (Homo sapiens, UniProt P40238); experiment: Microphysiometer assay: rate of acidification of extracellular medium on TPO receptor stimulation; assay type: cell-based
T2 sequence (P40238 26-635): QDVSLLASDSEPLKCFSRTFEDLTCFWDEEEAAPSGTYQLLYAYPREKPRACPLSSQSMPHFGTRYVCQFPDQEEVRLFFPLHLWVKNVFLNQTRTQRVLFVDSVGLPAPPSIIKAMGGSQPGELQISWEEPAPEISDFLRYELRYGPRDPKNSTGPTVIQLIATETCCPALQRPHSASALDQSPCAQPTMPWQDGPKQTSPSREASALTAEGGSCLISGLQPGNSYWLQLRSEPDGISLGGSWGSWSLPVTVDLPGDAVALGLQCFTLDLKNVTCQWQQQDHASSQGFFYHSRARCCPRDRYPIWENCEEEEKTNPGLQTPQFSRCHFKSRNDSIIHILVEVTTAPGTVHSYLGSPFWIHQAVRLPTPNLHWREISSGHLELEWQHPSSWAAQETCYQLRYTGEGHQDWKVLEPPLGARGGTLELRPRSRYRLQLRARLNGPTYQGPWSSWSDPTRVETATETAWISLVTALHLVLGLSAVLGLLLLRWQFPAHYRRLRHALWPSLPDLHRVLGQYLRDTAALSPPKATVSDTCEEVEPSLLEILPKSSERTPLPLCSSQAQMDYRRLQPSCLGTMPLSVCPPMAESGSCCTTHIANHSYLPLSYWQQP
Procedure: In this example cyclized compounds were subjected to three assays. […] Finally, a microphysiometer (Molecular Devices Corp.) assay was performed. […] The ranges for EC50 are symbolically indicated as for IC50 described above.

[1] = target: T3, human TPO-R (transfected Ba/F3 cells) (Homo sapiens, UniProt P40238); experiment: Thrombopoietin dependent cell proliferation assay (MTT), TPO-R transfected Ba/F3 cells; assay type: cell-based
T3 construct: Murine IL-3 dependent Ba/F3 cells were transfected with full length human TPO-R; expressed in transfected cells; host or cells: murine Ba/F3 cells
T3 sequence (P40238 26-635): T2 sequence (P40238 26-635)
Procedure: Bioactivity of the peptides can be measured using a thrombopoietin dependent cell proliferation assay. Murine IL-3 dependent Ba/F3 cells were transfected with full length human TPO-R. In the absence of IL-3 (WEHI-3 conditioned media), these cells are dependent on TPO for proliferation.
The cells were grown in complete RPMI-10 media, containing 10% WEHI-3 conditioned media, then washed twice in PBS, resuspended in media which lacked WEHI-3 conditioned media, and added to wells containing dilutions of peptide or TPO at 2×10^4 cells/well. The cells were incubated for 48 hours at 37° C. in a humidified 5% CO2 atmosphere and metabolic activity was assayed by the reduction of MTT to formazan, with absorbance at 570 nm measured on an ELISA plate reader.

[2] = Table 4, cyclized compounds, microphysiometer, read-out: EC50 (nM) Microonys
[3] = Table 4, cyclized compounds, read-out: EC50 (nM) Proliferation
[4] = Table 7, dimer compounds, read-out: EC50 (nM) Microonys.
[5] = Table 5, value in parentheses, read-out: EC50 (nM), microphysiometer results given in parentheses

pIC50 (TPO-R; Table 4, cyclized compounds)	EC50 (TPO receptor; [2]) [nM]	EC50 [1, 3] [nM]	pIC50 (TPO-R; Table 7, dimer compounds)	EC50 (TPO receptor; [4]) [nM]	SMILES	further results
≥ 6.30	< 200000	< 200000	–	–	CC[C@H](C)[C@@H]1NC(=O)[C@H](Cc2c[nH]c3ccccc23)NC(=O)[C@H](CCC(=O)O)NC(=O)[C@H](CCCNC(=N)N)NC(=O)[C@H](CC(C)C)NC(=O)[C@H]([C@@H](C)O)NC(=O)[C@@H]2CCCN2C(=O)CNC(=O)[C@H](CC(=O)O)NC(=O)[C@H](C)NC(=O)CSCC[C@@H](C(N)=O)NC(=O)[C@H](Cc2ccccc2)NC(=O)[C@H](CO)NC1=O (HELM PEPTIDE1{[O=C(C[*:3])[*:2]].A.D.G.P.T.L.R.E.W.I.S.F.[O=C([C@H](CCS[*:3])N[*:1])[*:2]].[am]}$PEPTIDE1,PEPTIDE1,1:R3-14:R3$$$V2.0)	–
≥ 6.30	< 500	< 500	–	–	CC[C@H](C)[C@@H]1NC(=O)[C@H](Cc2c[nH]c3ccccc23)NC(=O)[C@H](CCC(=O)O)NC(=O)[C@H](CCCNC(=N)N)NC(=O)[C@H](CC(C)C)NC(=O)[C@H]([C@@H](C)O)NC(=O)[C@@H]2CCCN2C(=O)CNC(=O)[C@H](CC(=O)O)NC(=O)[C@H](C)NC(=O)[C@@H](N)C(C)(C)SSC[C@@H](C(N)=O)NC(=O)[C@H](Cc2ccccc2)NC(=O)[C@H](CO)NC1=O (HELM PEPTIDE1{[Pen].A.D.G.P.T.L.R.E.W.I.S.F.C.[am]}$PEPTIDE1,PEPTIDE1,1:R3-14:R3$$$V2.0)	–
–	–	–	≥ 6.30	< 500	CC(C)C[C@H](NC(=O)[C@H](Cc1c[nH]c2ccccc12)NC(=O)[C@H](CCC(N)=O)NC(=O)[C@H](CCCNC(=N)N)NC(=O)[C@H](CC(C)C)NC(=O)[C@@H](NC(=O)[C@@H]1CCCN1C(=O)CNC(=O)[C@H](CCC(=O)O)NC(=O)[C@@H](N)CCCCN)[C@@H](C)O)C(=O)N[C@@H](C)C(=O)N[C@@H](C)C(=O)N[C@@H](CCCNC(=N)N)C(=O)N[C@@H](C)C(=O)NCCCC[C@H](NC(=O)CCNC(=O)[C@H](C)NC(=O)[C@H](CCCNC(=N)N)NC(=O)[C@H](C)NC(=O)[C@H](C)NC(=O)[C@H](CC(C)C)NC(=O)[C@H](Cc1c[nH]c2ccccc12)NC(=O)[C@H](CCC(N)=O)NC(=O)[C@H](CCCNC(=N)N)NC(=O)[C@H](CC(C)C)NC(=O)[C@@H](NC(=O)[C@@H]1CCCN1C(=O)CNC(=O)[C@H](CCC(=O)O)NC(=O)[C@@H](N)CCCCN)[C@@H](C)O)C(N)=O	–
–	–	–	–	–	CC[C@H](C)[C@@H]1NC(=O)[C@H](Cc2c[nH]c3ccccc23)NC(=O)[C@H](CCC(=O)O)NC(=O)[C@H](CCCNC(=N)N)NC(=O)[C@H](CC(C)C)NC(=O)[C@H]([C@@H](C)O)NC(=O)[C@@H]2CCCN2C(=O)CNC(=O)[C@H](CC(=O)O)NC(=O)[C@H](C)NC(=O)[C@@H](N)CSSC[C@@H](C(N)=O)NC(=O)[C@H](CC2CCCCC2)NC(=O)[C@H](CO)NC1=O [F-CHA] (HELM PEPTIDE1{C.A.D.G.P.T.L.R.E.W.I.S.[Cha].C.[am]}$PEPTIDE1,PEPTIDE1,1:R3-14:R3$$$V2.0; N-terminus and C-terminus assumed)	pIC50 (TPO-R; Table 5): ≥ 6.30; EC50 (TPO receptor; [5]): < 500 nM; EC50 ([1]; Table 5, substitutions in cyclized compound, read-out: EC50 (nM) Cell Prolif.): < 500 nM
–	–	–	–	–	CC[C@H](C)[C@@H]1NC(=O)[C@H](Cc2c[nH]c3ccccc23)NC(=O)[C@H](CCC(=O)O)NC(=O)[C@H](CCCNC(=N)N)NC(=O)[C@H](CC(C)C)NC(=O)[C@H]([C@@H](C)O)NC(=O)[C@@H]2CCCN2C(=O)[C@@H](N)CSSC[C@@H](C(N)=O)NC(=O)[C@H](Cc2ccccc2)NC(=O)[C@H](CO)NC1=O [ADG-deletion] (HELM PEPTIDE1{C.P.T.L.R.E.W.I.S.F.C.[am]}$PEPTIDE1,PEPTIDE1,1:R3-11:R3$$$V2.0; N-terminus and C-terminus assumed)	pIC50 (TPO-R; Table 5): ≥ 3.70; EC50 (TPO receptor; [5]): < 200000 nM
–	–	–	≥ 6.30	< 500	CC[C@H](C)[C@H](NC(=O)[C@H](Cc1c[nH]c2ccccc12)NC(=O)[C@H](CCC(=O)O)NC(=O)[C@H](CCCNC(=N)N)NC(=O)[C@H](CC(C)C)NC(=O)[C@@H](NC(=O)[C@@H]1CCCN1C(=O)CNC(=O)[C@H](CC(=O)O)NC(=O)[C@H](C)NC(=O)[C@@H](N)CSSC[C@H](N)C(=O)N[C@@H](C)C(=O)N[C@@H](CC(=O)O)C(=O)NCC(=O)N1CCC[C@H]1C(=O)N[C@H](C(=O)N[C@@H](CC(C)C)C(=O)N[C@@H](CCCNC(=N)N)C(=O)N[C@@H](CCC(=O)O)C(=O)N[C@@H](Cc1c[nH]c2ccccc12)C(=O)N[C@H](C(=O)N[C@@H](CO)C(=O)N[C@@H](Cc1ccccc1)C(N)=O)[C@@H](C)CC)[C@@H](C)O)[C@@H](C)O)C(=O)N[C@@H](CO)C(=O)N[C@@H](Cc1ccccc1)C(N)=O (HELM PEPTIDE1{C.A.D.G.P.T.L.R.E.W.I.S.F.[am]}|PEPTIDE2{C.A.D.G.P.T.L.R.E.W.I.S.F.[am]}$PEPTIDE1,PEPTIDE2,1:R3-1:R3$$$V2.0)	EC50 ([1]; Table 7, dimer compounds, read-out: EC50 (nM) Prolif.): < 500 nM
≥ 6.30	< 200000	< 200000	–	–	CC[C@H](C)[C@@H]1NC(=O)[C@H](Cc2c[nH]c3ccccc23)NC(=O)[C@H](CCC(=O)O)NC(=O)[C@H](CCCNC(=N)N)NC(=O)[C@H](CC(C)C)NC(=O)[C@H]([C@@H](C)O)NC(=O)[C@@H]2CCCN2C(=O)CNC(=O)[C@H](CC(=O)O)NC(=O)[C@H](C)NC(=O)[C@H](N)C(C)(C)SSC[C@H](C(N)=O)NC(=O)[C@H](Cc2ccccc2)NC(=O)[C@H](CO)NC1=O (HELM PEPTIDE1{[CC(C)(S[*:3])[C@@H](N)C(=O)[*:2]].A.D.G.P.T.L.R.E.W.I.S.F.[dC].[am]}$PEPTIDE1,PEPTIDE1,1:R3-14:R3$$$V2.0)	–
≥ 6.30	< 200000	< 200000	–	–	CC[C@H](C)[C@@H]1NC(=O)[C@H](Cc2c[nH]c3ccccc23)NC(=O)[C@H](CCC(=O)O)NC(=O)[C@H](CCCNC(=N)N)NC(=O)[C@H](CC(C)C)NC(=O)[C@H]([C@@H](C)O)NC(=O)[C@@H]2CCCN2C(=O)CNC(=O)[C@H](CC(=O)O)NC(=O)[C@H](C)NC(=O)[C@@H](N)CSSC[C@H](C(N)=O)NC(=O)[C@H](Cc2ccccc2)NC(=O)[C@H](CO)NC1=O (HELM PEPTIDE1{C.A.D.G.P.T.L.R.E.W.I.S.F.[dC].[am]}$PEPTIDE1,PEPTIDE1,1:R3-14:R3$$$V2.0)	–
–	–	–	≥ 6.30	< 500	CC[C@H](C)[C@H](NC(=O)[C@@H](N)CSSC[C@H](N)C(=O)N[C@H](C(=O)N[C@@H](CCC(=O)O)C(=O)NCC(=O)N1CCC[C@H]1C(=O)N[C@H](C(=O)N[C@@H](CC(C)C)C(=O)N[C@@H](CCCNC(=N)N)C(=O)N[C@@H](CCC(N)=O)C(=O)N[C@@H](Cc1c[nH]c2ccccc12)C(=O)N[C@@H](CC(C)C)C(=O)N[C@@H](C)C(=O)N[C@@H](C)C(=O)N[C@@H](CCCNC(=N)N)C(=O)N[C@@H](C)C(N)=O)[C@@H](C)O)[C@@H](C)CC)C(=O)N[C@@H](CCC(=O)O)C(=O)NCC(=O)N1CCC[C@H]1C(=O)N[C@H](C(=O)N[C@@H](CC(C)C)C(=O)N[C@@H](CCCNC(=N)N)C(=O)N[C@@H](CCC(N)=O)C(=O)N[C@@H](Cc1c[nH]c2ccccc12)C(=O)N[C@@H](CC(C)C)C(=O)N[C@@H](C)C(=O)N[C@@H](C)C(=O)N[C@@H](CCCNC(=N)N)C(=O)N[C@@H](C)C(N)=O)[C@@H](C)O (HELM PEPTIDE1{C.I.E.G.P.T.L.R.Q.W.L.A.A.R.A.[am]}|PEPTIDE2{C.I.E.G.P.T.L.R.Q.W.L.A.A.R.A.[am]}$PEPTIDE1,PEPTIDE2,1:R3-1:R3$$$V2.0)	–
